{
  "source": "patent US12428377B2",
  "about": "“Sodium-hydrogen exchanger 3 inhibitor compounds” (Eli Lilly and Company, priority 2019, dated 2025)",
  "key": {"human NHE3": {"biological_target": "T1, human NHE3 (Homo sapiens, UniProt P48764)", "T1 construct": "myc; expressed in transfected cells", "T1 sequence (P48764 26-834)": "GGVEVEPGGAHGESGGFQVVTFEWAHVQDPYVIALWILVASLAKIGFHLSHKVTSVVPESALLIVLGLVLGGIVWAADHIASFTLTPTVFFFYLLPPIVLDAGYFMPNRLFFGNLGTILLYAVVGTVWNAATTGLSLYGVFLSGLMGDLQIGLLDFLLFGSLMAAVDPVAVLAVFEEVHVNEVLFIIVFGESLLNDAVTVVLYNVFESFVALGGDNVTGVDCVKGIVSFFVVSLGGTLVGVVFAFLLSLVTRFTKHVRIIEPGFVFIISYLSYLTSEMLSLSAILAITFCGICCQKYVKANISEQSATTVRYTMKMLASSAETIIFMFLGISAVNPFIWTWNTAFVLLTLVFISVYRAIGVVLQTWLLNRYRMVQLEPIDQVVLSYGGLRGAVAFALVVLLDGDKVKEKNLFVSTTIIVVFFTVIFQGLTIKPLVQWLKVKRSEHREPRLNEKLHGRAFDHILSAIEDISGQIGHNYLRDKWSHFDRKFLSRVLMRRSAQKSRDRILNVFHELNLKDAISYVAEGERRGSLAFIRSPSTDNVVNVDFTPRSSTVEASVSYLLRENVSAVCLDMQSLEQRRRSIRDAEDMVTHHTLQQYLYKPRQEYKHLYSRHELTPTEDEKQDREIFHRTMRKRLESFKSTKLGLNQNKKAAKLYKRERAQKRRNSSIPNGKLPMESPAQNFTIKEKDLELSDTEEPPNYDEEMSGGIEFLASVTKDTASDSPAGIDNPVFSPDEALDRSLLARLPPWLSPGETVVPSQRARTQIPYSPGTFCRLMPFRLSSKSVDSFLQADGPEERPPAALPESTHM", "assay": "In vitro NHE3 inhibition activity (intracellular pH recovery, BCECF-AM, NHD C8 cells overexpressing human NHE3)", "format": "cell-based", "conditions": "geometric mean of individual IC50", "description": "In Vitro NHE3 Inhibition Activity\nTo create an NHE3 assay, cells selectively expressing NHE3 are generated by overexpressing human NHE3 in an endogenously NHE-deficient cell line. The NHE-deficient cell line is created by chemical-induced mutagenesis. After the mutagenesis, NHE-deficient cells are selected by subjecting lithium (Li) loaded cells to an acidic extracellular environment. Under these conditions, NHE exchanges intracellular Li^+ for extracellular protons, thus only NHE-deficient cells can avoid a toxic intracellular acidosis and survive.\nAn NHE-deficient cell line, NHD C8, is generated by mutagenesis and selection from the cell line Dede (ATCC® CCL-39™). The mutagenesis is induced by treating Dede CCL-39 cells with EMS (Sigma-Aldrich) in growth media at a final concentration of 500 μg/ml for 20 h. […]\nTo measure NHE activity, the intracellular pH of the cells is reduced by addition of NH4Cl. The sodium-dependent intracellular pH change is then measured by the intracellular pH-sensitive fluorescein dye, BCECF-AM (Molecular Probes-ThermoFisher Scientific). […] The plate is immediately read for fluorescent intensity at an excitation wavelength of 505 nm and emission wavelength of 550 nm. […]"}, "Male Sprague-Dawley rats": {"tested_on": "Male Sprague-Dawley rats", "assay": "Effect of Example 1 on sodium absorption (urinary sodium excretion after oral NaCl bolus)", "format": "in vivo, rat", "conditions": "2 h urine; for Urinary Sodium to Creatinine Ratio: mean ± SEM", "experimental": "Effect of Example 1 on Sodium Absorption\nUrinary sodium excretion following an oral bolus dose of sodium chloride is an indirect measure of sodium absorption in the intestine.\nMale Sprague-Dawley with body weights ranging from 200 to 250 g are randomized into groups based on equal mean body weights. Henceforth the following formulation is referred to as “1% HEC”: 1% hydroxyethyl cellulose (HEC) and 0.25% Tween® 80 with antifoam vehicle in water. Example 1 at 0.1 mg/mL (final dose 1 mg/kg dosed in 10 mL/kg volume) is formulated with 1% HEC in a glass vial containing a pre-weighed amount of compound, and then probe sonicating until it appears as a uniform suspension. […] The subsequent dosing solutions of Example 1 are prepared by serial dilutions with 1% HEC. NaCl at 10 mg/ml (final dose 200 mg/kg dosed in 20 ml/kg volume) is formulated by adding sterile water.\nOn the day before the study, the animals are placed into clean cages without food but with access to water for an overnight fast. On the day of the study, rats are orally dosed with vehicle or varying doses of Example 1. 30 min later, animals are dosed with NaCl, then immediately transferred to metabolic cages. Urine samples are collected for 2 h. Net urine volume is recorded. Urinary sodium, and creatinine are assessed using a clinical biochemistry analyzer.\nValues expressed as the ratio of urinary sodium to creatinine (mM/mM) are calculated and presented as mean±SEM. The curves are fitted with 4-parameter logistic curve fitting tool GraphPad Prism 6 to calculate the ED50. For the purpose of curve fitting, the dose of Example 1 is artificially set to 0.001 mg/kg in the software for the vehicle-alone group."}},
  "data": [
    {"compound": "CN1Cc2c(Cl)cc(Cl)cc2[C@H](c2cccc(S(=O)(=O)NCCOCCOCCN/C(=N\\C#N)NCCCCN/C(=N/C#N)NCCOCCOCCNS(=O)(=O)c3cccc([C@@H]4CN(C)Cc5c(Cl)cc(Cl)cc54)c3)c2)C1", "note": "[Example 1, 2-Cyano-1-[4-[[N′-cyano-N-[2-[2-[2-[[3-[(4S)-6,8-dichloro-2-methyl-3,4-dihydro-1H-isoquinolin-4-yl]phenyl]sulfonylamino]ethoxy]ethoxy]ethyl]carbamimidoyl]amino]butyl]-3-[2-[2-[2-[[3-[(4S)-6,8-dichloro-2-methyl-3,4-dihydro-1H-isoquinolin-4-yl]phenyl]sulfonylamino]ethoxy]ethoxy]ethyl]guanidine]", "values": [
      {"measurement": "IC50", "setting": "human NHE3", "result": 37.9, "unit": "nM"},
      {"measurement": "ED50", "setting": "Male Sprague-Dawley rats; Rattus norvegicus, oral, NaCl bolus 200 mg/kg", "result": 0.058, "unit": "mg/kg"},
      {"measurement": "Urinary Sodium to Creatinine Ratio", "setting": "Male Sprague-Dawley rats; oral 0.03 mg/kg", "result": "1.19 ± 0.19", "unit": "mM/mM"},
      {"measurement": "Urinary Sodium to Creatinine Ratio", "setting": "Male Sprague-Dawley rats; oral 0.1 mg/kg", "result": "0.80 ± 0.23", "unit": "mM/mM"},
      {"measurement": "Urinary Sodium to Creatinine Ratio", "setting": "Male Sprague-Dawley rats; oral 0.3 mg/kg", "result": "0.37 ± 0.06", "unit": "mM/mM"},
      {"measurement": "Urinary Sodium to Creatinine Ratio", "setting": "Male Sprague-Dawley rats; oral 1.0 mg/kg", "result": "0.63 ± 0.23", "unit": "mM/mM"}
    ]}
  ]
}
